Measurements taken from paper PMC12030277, “Is Copper-61 the New Gallium-68? Automation and Preclinical Proof-of-Concept of ^61Cu-Based Radiopharmaceuticals for Prostate Cancer Imaging” (Pharmaceuticals, 2025).

Legend:
[1] = system: LNCaP (PSMA-positive) cells; assay: In vitro uptake assay, LNCaP cells; type: cell-based, human; details: 0.5 nM, 37 °C, up to 2 h, later time points; % of total radioactivity per well, gamma counter; mean ± SEM, N = 2–5 in duplicate
Experimental: (§1) The human PCa cell lines LNCaP (PSMA-positive) (American Type Culture Collection (ATCC), CRL-1740; Manassas, VA, USA) and DU145 (PSMA-negative) (kindly provided by Dr. Carmen Jerónimo Lab at IPO-Porto) were maintained at 37 °C in a humidified incubator enriched with 5% carbon dioxide. The cells were grown in Roswell Park Memorial Institute (RPMI) 1640 medium (Sigma-Aldrich, R4130; St. Louis, MI, USA) supplemented with 0.2% (w/v) sodium bicarbonate (Sigma-Aldrich, S6297), 10% heat-inactivated fetal bovine serum (FBS; Gibco, A5256801; Grand Island, NY, USA), 1 mM sodium pyruvate (Gibco, 11360-070), and 1% antibiotic-antimycotic (Anti-Anti 100X, Gibco, 15240-062). LNCaP and DU145 cells were seeded in 12-well plates (0.3 × 10^6 cells/well/mL) 48 h before the experiments and the day before, respectively. The multiwell plates used for the LNCaP cell line were previously coated with poly-l-lysine (PLL, Innoprot; Bizcaia, Spain) for 4–6 h to prevent cell detachment during the assays. Both PSMA-positive and -negative cells were incubated with 0.5 nM of ^61Cu-radiopharmaceuticals at 37 °C for different time periods up to 2 h. […] The radioactivity of both the supernatant and cellular fraction was measured in a CRC-55tW gamma-well counter (Mirion Technologies; Atlanta, GA, USA). Cellular uptake was calculated as a percentage of the total radioactivity measured for each well. […]

[2] = system: DU145 (PSMA-negative) cells; assay: In vitro uptake assay, DU145 cells; type: cell-based, human; details: 0.5 nM, 37 °C, up to 2 h, N = 2–5 in duplicate
Experimental: as §1

[3] = set-up: species or system mice; details: mouse
[4] = system: PSMA-positive tumor xenografts (LNCaP); set-up: species or system mice; details: mouse, in vivo
Experimental: Animal studies were approved by the Animal Welfare Committee of the Institute of Nuclear Sciences Applied to Health (ICNAS; ORBEA 01-2018) and the Portuguese National Authority for Animal Health (DGAV). Male athymic Swiss nude mice aged 9-12 weeks (34–36 g) were supplied by ICNAS, housed under pathogen-free conditions in individually ventilated cages with controlled temperature/humidity (22 °C/55%) environment on a 12 h light–dark cycle, and provided with food and water ad libitum. […] Tumor growth was monitored with a digital caliper and PET/MRI scans were performed when tumor xenografts reached 5–7 mm in diameter (~75–130 mm^3, as calculated by the formula Length × Width^2 × 0.5), approximately 9 weeks after inoculation.
[^61Cu]Cu-DOTAGA-PSMA-I&T (~0.37 MBq/g; ~3.56 nmol; N = 2) or [^61Cu]Cu-NODAGA-PSMA-I&T (~0.37 MBq/g; ~0.653 nmol; N = 3) in NaCl 0.9% with 10% EtOH was intravenously injected into the tail vein of anesthetized mice. […] Respiratory rate and body temperature were monitored throughout the imaging procedures (SA Instruments, Inc.; Stony Brook, NY, USA). […] For quantitative PET imaging processing, PMOD v3.6 and FUSION Tool (PMOD Technologies; Zürich, Switzerland; RRID:SCR_016547) were used to delineate volumes of interest (VOIs) on the PET images co-registered with the respective MRI. […] Uptake values were expressed as percentage of injected dose per gram of tissue (% ID/g).

Molecule	maximum cellular uptake in LNCaP cells [1]	cellular uptake in DU145 cells [2]	in vivo stability [3]	clearance route [4]
O=C(O)CC[C@H](NC(=O)N[C@@H](CCCCNC(=O)CCCCCCC(=O)NCCCC[C@@H](NC(=O)[C@@H](Cc1ccccc1)NC(=O)[C@@H](Cc1ccc(O)c(I)c1)NC(=O)CCC(C(=O)O)N1CCN(CC(=O)O)CCN(CC(=O)O)CC1)C(=O)O)C(=O)O)C(=O)O (stereo partly shown) [[^61Cu]Cu-NODAGA-PSMA-I&T, metal not drawn]	13.16 ± 0.15%	remained at basal levels	remarkable in vivo metabolic stability	clearance predominantly through the renal pathway
[^61Cu]Cu-DOTAGA-PSMA-I&T	14.09 ± 0.84%	remained at basal levels	poor kinetic stability in vivo	
